Test results published in patent US11564911B2, “Small molecule dual-inhibitors of TRPV4 and TRPA1 for sanitizing and anesthetizing” (Duke University, priority 2016, dated 2023).
Entries after “also recorded” stand apart in the source; their conditions may differ.

Columns and labels:
[1] = Stability of compound in plasma; conditions: 4 h incubation in plasma at 37° C.
From the text: Results are expressed as means±SEM, n=6 mice/experimental group for all experiments.

TRPV4 [2] = biological target: T1, TRPV4 (Sus scrofa, UniProt B3VP30); assay: Ca++ imaging in primary articular chondrocytes, GSK101 stimulation; format: cell-based; conditions: primary articular chondrocytes (pig), 5 nM GSK101
T1 construct: primary cells, which express functional and biologically-relevant TRPV4 without directed over-expression of the channel; endogenous in cells; host or cells: primary porcine articular chondrocytes (femoral condyles)
T1 sequence (B3VP30 1-871): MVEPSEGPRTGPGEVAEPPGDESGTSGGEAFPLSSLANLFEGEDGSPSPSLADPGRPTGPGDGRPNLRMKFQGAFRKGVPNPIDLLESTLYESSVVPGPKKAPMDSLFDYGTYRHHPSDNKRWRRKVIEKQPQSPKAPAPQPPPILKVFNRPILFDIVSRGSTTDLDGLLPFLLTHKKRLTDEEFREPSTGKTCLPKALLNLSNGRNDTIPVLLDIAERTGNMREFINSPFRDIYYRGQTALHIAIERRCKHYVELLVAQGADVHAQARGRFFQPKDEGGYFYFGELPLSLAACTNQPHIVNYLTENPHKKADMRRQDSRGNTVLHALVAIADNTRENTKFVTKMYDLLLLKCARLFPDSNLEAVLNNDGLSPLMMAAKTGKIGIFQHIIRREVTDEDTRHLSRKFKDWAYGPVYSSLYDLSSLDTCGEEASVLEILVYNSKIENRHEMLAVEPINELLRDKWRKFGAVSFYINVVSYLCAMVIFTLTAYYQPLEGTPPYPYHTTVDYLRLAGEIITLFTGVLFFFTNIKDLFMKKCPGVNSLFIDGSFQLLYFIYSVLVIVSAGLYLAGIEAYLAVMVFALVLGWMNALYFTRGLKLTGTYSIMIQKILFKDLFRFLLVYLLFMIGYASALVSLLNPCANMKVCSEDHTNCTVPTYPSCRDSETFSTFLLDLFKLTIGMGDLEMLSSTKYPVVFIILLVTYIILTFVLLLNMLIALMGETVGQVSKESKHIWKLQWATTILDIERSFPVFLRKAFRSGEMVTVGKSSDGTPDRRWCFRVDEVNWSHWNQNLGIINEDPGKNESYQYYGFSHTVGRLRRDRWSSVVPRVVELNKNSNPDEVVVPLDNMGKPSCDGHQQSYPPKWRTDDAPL
Protocol: (§1) FIGS. 28A-28B: Compound 16-8 inhibits TRPV4 in I° cells more potently than GSK205. […] Inset: Chondrocytes responding to activation with GSK101, fura-2 Ca++ imaging; right-hand image taken at 5 sec after GSK101 application. […] (FIG. 28B) 1° (primary) astrocytes (rat); dose-response comparison between 16-8 and GSK205 in response to 5 nM GSK101. Inset: Astrocytes responding to activation with GSK101; right-hand image taken at 5 sec after GSK101 application (mean±SEM, n=5 independent expts, 200 cells/expt; *p<0.05, t-test).
Primary porcine chondrocytes derived from femoral condyles of skeletally mature pigs were cultured and subjected to Ca++ imaging as described previously^19,32,62,63.

TRPV4 [3] = biological target: TRPV4 (Rattus norvegicus, UniProt Q9ERZ8); assay: Ca++ imaging in primary astrocytes, GSK101 stimulation; format: cell-based; conditions: 5 nM GSK101
Sequence of TRPV4 (Rattus norvegicus, UniProt Q9ERZ8) (Q9ERZ8 whole entry): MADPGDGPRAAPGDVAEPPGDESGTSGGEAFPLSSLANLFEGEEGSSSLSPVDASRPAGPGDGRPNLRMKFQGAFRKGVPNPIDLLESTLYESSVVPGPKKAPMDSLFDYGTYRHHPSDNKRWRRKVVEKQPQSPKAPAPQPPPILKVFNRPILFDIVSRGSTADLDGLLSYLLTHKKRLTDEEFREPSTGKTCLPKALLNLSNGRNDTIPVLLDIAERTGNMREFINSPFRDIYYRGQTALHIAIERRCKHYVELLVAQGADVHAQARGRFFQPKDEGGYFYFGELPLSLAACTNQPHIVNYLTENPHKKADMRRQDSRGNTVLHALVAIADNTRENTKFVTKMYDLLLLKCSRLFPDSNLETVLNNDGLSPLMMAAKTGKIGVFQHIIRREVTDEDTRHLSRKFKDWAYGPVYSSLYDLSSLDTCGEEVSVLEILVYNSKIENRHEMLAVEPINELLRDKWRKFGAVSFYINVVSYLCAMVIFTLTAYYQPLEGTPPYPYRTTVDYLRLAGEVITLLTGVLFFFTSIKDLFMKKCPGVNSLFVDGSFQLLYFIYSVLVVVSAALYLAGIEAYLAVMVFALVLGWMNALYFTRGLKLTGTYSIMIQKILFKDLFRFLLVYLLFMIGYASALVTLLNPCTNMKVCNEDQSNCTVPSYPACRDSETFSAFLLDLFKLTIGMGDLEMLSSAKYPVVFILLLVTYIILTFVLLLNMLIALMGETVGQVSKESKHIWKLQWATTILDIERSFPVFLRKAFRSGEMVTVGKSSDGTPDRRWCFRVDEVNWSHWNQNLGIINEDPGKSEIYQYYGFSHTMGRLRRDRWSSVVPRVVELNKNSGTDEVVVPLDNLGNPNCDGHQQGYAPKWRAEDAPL
Protocol: as §1
Astrocyte cultures were conducted following established protocols^64-66. Astrocytes were prepared from Sprague Dawley rat embryos (E18). Briefly, the isolated cortices were minced, and then incubated with trypsin and DNase. Dissociated cells were suspended in Dulbeccco's Modified Eagle's Medium (DMEM) supplemented with 10% fetal calf serum and penicillin/streptomycin (100 U/ml and 100 μg/ml, respectively). Thereafter, cell sus-pensions were plated in 75 cm^2 tissue culture flasks (10×10^6 cells/flask) which were pre-coated with poly-L-lysine (10 μg/ml). The cells were maintained in a […] incubator at 37° C.

[4] = system: C57BL/6J mice, caerulein-evoked acute pancreatitis; assay: Caerulein-evoked acute pancreatitis mouse model; format: in vivo; conditions: 10 mg/kg i.p., 30 min before caerulein
Protocol: C57BL/6J male mice 8-10 weeks of age were subjected to acute pan-creatitis by intraperitoneal injections of supramaximal doses of caerulein (50 μg/kg) every hour for a total of 6 h, as previously described in^61. Control animals received 25% DMSO-saline solution by intraperitoneal injection every hour for 6 h. Compound 16-8 was dissolved in this vehicle (10 mg/kg) and injected i.p. 30 min prior to the first injection of caerulein. Animals were sacrificed 1 h after the last injection. Blood was collected and pancreatic tissue was promptly isolated, weighed for determination of pancreas wet weight/body weight ratio. Samples of tis-sues were fixed overnight in 10% neutral-buffered formalin, paraffin embedded and H&E-stained, or pancreatic tissue was quickly frozen and assessed for myeloperoxidase (MPO) activity. Serum amylase, MPO and histologic evaluation were conducted as described previously^61.
Assessment of nocifensive behavior^8: Mice were housed in individual cages and video-recorded during the entire experiment. Two mice at a time were observed. Linear movement was measured as one event when mice passed through the median plane of the cage. Analysis began immediately after the first caerulein/vehicle injec-tion and continued until the end of the experiment. Results were expressed as the sum of the movement events spanning the 6 h time-period following the first injection.

TRPV4 [5] = biological target: T2, TRPV4 (Mus musculus, UniProt Q9EPK8); assay: Ca++ transients in primary mouse keratinocytes on chemical activation of TRPV4 (GSK101, 4α-PDD); format: cell-based; conditions: 1° MK, 5 nM GSK101; GSK205 20 μM
T2 construct: endogenous in cells; host or cells: primary mouse epidermal keratinocytes (1° MK)
T2 sequence (Q9EPK8 whole entry): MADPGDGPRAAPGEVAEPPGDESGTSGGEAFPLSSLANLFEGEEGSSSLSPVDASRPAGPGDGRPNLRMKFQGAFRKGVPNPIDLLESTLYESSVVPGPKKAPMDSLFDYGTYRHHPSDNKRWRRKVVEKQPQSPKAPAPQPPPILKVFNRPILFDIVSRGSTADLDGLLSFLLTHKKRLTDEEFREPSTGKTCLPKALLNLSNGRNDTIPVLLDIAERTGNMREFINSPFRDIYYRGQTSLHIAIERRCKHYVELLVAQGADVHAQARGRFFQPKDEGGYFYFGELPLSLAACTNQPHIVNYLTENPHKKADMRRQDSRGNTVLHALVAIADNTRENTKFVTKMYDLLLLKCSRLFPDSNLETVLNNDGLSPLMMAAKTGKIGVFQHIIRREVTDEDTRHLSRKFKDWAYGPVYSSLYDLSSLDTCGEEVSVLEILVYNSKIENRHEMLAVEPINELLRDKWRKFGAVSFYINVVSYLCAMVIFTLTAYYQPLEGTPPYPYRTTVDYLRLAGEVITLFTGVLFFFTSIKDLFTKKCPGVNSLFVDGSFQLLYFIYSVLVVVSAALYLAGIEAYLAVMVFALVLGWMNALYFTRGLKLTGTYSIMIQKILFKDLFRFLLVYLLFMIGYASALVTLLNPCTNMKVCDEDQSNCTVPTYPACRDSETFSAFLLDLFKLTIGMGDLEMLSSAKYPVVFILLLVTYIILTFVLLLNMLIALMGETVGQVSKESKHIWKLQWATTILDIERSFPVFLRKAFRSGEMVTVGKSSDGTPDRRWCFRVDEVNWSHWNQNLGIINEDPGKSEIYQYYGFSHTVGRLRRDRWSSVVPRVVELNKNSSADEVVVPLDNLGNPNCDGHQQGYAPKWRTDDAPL
Protocol: Ca++ imaging of mouse 1° MK in response to chemical activation of TRPV4 was conducted after loading with 2 μM fura2-AM, following a ratiometric Ca2+ imaging protocol with 340/380 nm […] for dual excitation. Ratios of emissions were acquired at 0.5 Hz. ΔR/R0 was determined as the fraction of the increase of a given ratio over baseline ratio, divided by baseline ratio. For stimulation of cells with UVB, where fura-2 was not suitable because of the proximity of stimulation with 340/380 nm and 295 nm, 2 μM fluo4-AM was used instead. Ca++ imaging was carried out at 488 nm excitation, acquisition of emissions at 0.5 Hz, expressed as ΔF/F0. In the custom-built UV optical system, UV LEDs were capped with a ball lens, a transparent optical window in the shape of a hemispherical lens (FIG. 2B). The LED output optical beam focused at 15-20 mm from the lens, with a spot diameter of approximately 1.5-2.0 mm (FIG. 2C). […] The thermal equilibration stage was set for physiological temperature. We confirmed the non-thermal nature of UVB stimulation using the customized 295 nm LED device in a dedicated experiment (FIG. 2D), thus confirming the specific modality of stimulation as UVB.

[6] = system: primary mouse keratinocytes (1° MK); assay: ET1 immunocytochemistry in UVB-exposed primary mouse keratinocytes; format: cell-based; conditions: 295 nm UVB-LED
Protocol: 1° MK were exposed to UVB using the UV optical system (295 nm LED). 24 hours later the cells were fixed and fluorescently immunolabeled for ET1. Digital images were captured and subjected to morphometry.
Mouse keratinocytes were cultured on collagen coated quartz coverslips and then stimulated from the bottom using the previously mentioned UV optical system using the 295 nm LED. 24 hours later the cells were fixed in 4% formaldehyde in PBS for 20 minutes, permeabilized with 0.1% Triton X-100 in PBS for 10 minutes, washed, then blocked in 10% normal goat serum in PBS for 45 minutes. Coverslips were incubated overnight with primary antibody mouse anti-ET1 (1:200; Abcam), washed three times in PBS and incubated with secondary antibody for 2 hours at 25° C. Coverslips were washed three times in PBS, once with double-distilled H2O. Digital images were captured using a 40× immersion lens on the BX61 Olympus upright microscope. Morphometric analysis was conducted using ImageJ freeware with tailored regions-of-interest.

[7] = system: primary mouse keratinocytes (1° MK); assay: IL-1β secreted by cultured keratinocytes after UVB exposure (ELISA); format: cell-based; conditions: 5 μM GSK205
Protocol: Before UV irradiation, culture media was replaced with PBS. The cells were then irradiated at a dose of 50 mJ/cm^2 with UVB. 24 hours later, supernatants were assayed using IL-1β ELISA (R&D Systems, Minneapolis, Minn.).

TRPV4 [8] = biological target: TRPV4 (Homo sapiens, UniProt Q9HBA0); assay: UVB-evoked Ca++ transient in TRPV4-transfected HEK293T cells; format: cell-based; design: expressed in transfected cells; conditions: preexposure to 20 μM GSK205
Sequence of TRPV4 (Homo sapiens, UniProt Q9HBA0) (Q9HBA0 whole entry, species assumed): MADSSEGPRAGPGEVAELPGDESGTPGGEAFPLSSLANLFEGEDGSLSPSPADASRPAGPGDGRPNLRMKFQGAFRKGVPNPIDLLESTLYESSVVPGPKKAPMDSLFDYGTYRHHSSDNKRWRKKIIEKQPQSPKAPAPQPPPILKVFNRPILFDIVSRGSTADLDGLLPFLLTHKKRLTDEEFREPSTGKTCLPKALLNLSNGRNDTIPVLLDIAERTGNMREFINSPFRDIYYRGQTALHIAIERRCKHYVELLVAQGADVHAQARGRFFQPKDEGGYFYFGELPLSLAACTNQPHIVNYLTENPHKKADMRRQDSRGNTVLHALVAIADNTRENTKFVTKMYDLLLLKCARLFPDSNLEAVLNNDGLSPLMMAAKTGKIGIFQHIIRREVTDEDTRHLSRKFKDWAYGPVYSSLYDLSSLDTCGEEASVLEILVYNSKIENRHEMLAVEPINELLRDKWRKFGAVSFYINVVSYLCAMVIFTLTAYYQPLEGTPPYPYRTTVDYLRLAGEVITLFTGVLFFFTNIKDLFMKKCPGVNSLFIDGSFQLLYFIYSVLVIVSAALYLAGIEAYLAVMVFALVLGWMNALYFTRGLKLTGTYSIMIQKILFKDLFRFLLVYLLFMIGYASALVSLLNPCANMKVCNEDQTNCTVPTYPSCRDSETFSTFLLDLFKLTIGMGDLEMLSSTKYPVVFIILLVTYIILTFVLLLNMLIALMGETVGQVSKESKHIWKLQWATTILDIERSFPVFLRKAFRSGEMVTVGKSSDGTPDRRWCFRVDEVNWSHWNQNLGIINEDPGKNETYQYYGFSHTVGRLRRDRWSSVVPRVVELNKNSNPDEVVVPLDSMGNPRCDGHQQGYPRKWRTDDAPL
From the text: (FIG. 2B) Focusing properties of the ball lens. […] (FIG. 2E) TRPV3 activation experiment. […] (FIG. 2F) TRPV4 selective activator GSK101-related findings.
To assess whether TRPV4 is sufficient for the UVB-evoked Ca++ influx, we introduced high levels of TRPV4 into HEK293 epithelial cells. TRPV4 expression endowed these cells with the ability to generate robust Ca++ signaling in response to UVB (FIG. 2G). Moreover, if they were pre-exposed to GSK205, the response was blocked. Thus, heterologous TRPV4 expression is sufficient for UVB radiation to cause a cellular Ca++ transient.

CCN(CCc1ccc(Nc2nc(-c3ccccc3)cs2)cc1)Cc1ccccc1 [Compound 16-19]
stability in plasma [1]: no loss of detectable compound

CN(CCc1ccc(Nc2nc(-c3ccccc3)cs2)cc1)Cc1ccccc1 [Compound 16-8]
potency versus GSK205, dose-response of peak ΔCa++ (TRPV4 [2]): significantly more potent than GSK205
potency versus GSK205, dose-response of peak ΔCa++ (TRPV4 [3]): significantly increased potency
histopathological score for pancreas inflammation [4]: significantly reduced
myelo-peroxidase content of the pancreas [4]: significantly reduced
pain behavior (movement events over 6 h) [4]: virtually eliminated
pancreatic edema [4]: virtually eliminated
serum amylase [4]: significantly reduced; also recorded: reduced, but not significantly

CN(CCc1ccc(Nc2nc(-c3cccnc3)cs2)cc1)Cc1ccccc1 [GSK205]
GSK101-evoked Ca++ transient (TRPV4 [5]): completely blocked
ET1 immunoreactivity in UVB-exposed 1° MK [6]: significant down-regulation
UVB-induced increase in IL-1β secretion by 1° MK [7]: completely eliminated
UVB-evoked Ca++-signal in TRPV4-transfected HEK293T cells (TRPV4 [8]): virtually eliminates
